The values below come from patent US12084462B2, “Spiro bicyclic inhibitors of menin-MLL interaction” (Janssen Pharmaceutica NV, priority 2016, dated 2024).

In one test the test system is MOLM14. Briefly: Proliferation assay (spheroid assay) MOLM14. The test is classed as cell-based, human. The conditions noted are these: Homo sapiens, MOLM-14, MOLM14; averaged values; read-out: Spheroid assay MOLM14 (IC50 (μM)). The procedure: (§1) The anti-proliferative effect of menin/MLL protein/protein interaction inhibitor test compounds was assessed in human leukemia cell lines. The cell lines MV-4-11 and MOLM14 harbor MLL translocations and express the MLL fusion proteins MLL-AF4 and MLL-AF9, respectively, as well as the wildtype protein from the second allele. […] K562 and KG1 were used as a control cell lines containing two MLL wildtype alleles in order to exclude compounds that display general cytotoxic effects.
(§2) MV-4-11 and MOLM14 were cultured in RPMI-1640 (Sigma Aldrich) supplemented with 10% fetal bovine serum (HyClone), 2 mM L-glutamine (Sigma Aldrich) and 50 μg/ml gentamycin (Gibco). K562 were propagated in RPMI-1640 (Sigma Aldrich) supplemented with 20% fetal bovine serum (HyClone), 2 mM L-glutamine (Sigma Aldrich) and 50 μg/ml gentamycin (Gibco). KG1 were cultured in Iscove's MDM (Gibco) supplemented with 20% fetal bovine serum (HyClone), 2 mM L-glutamine (Sigma Aldrich) and 50 μg/ml gentamycin (Gibco).
(§3) In order to assess the anti-proliferative effects, 1,500 MV-4-11, 300 MOLM14, 750 K562 or 1,300 KG1 cells were seeded in 200 μl media per well in 96-well round bottom, ultra-low attachment plates (Costar, catalogue number 7007). Cell seeding numbers were chosen based on growth curves to ensure linear growth throughout the experiment. Test compounds were added at different concentrations and the DMSO content was normalized to 0.3%. Cells were incubated for 8 d at 37° C. and 5% CO2. Spheroid like growth was monitored in real-time by live-cell imaging (IncuCyteZOOM, Essenbio, 4× objective) acquiring one image every four hours for 8 d. Confluence (%) as a measure of spheroid size was determined using an integrated analysis tool.
(§4) In order to determine the cumulative effect of the test compounds over time, the area under the curve (AUC) in a plot of confluence against time was calculated. Confluence at the beginning of the experiment (t=0) was used as baseline for the AUC calculation.
(§5) Absolute IC50 values were calculated according to the following procedure: % Control=(AUC sample/AUC control)*100 AUC control=mean AUC of control values (cells without compound/DMSO as vehicle control)
(§6) A non-linear curve fit was applied using the least squares (ordinary) fit method to the plot of % control versus compound concentration. Based on this, the absolute IC50 value (half maximal inhibitory concentration of the test compound causing an anti-proliferative effect of 50% relative to the vehicle control) was calculated.

The target in the next test is T1, menin (Homo sapiens, UniProt O00255, T541A).
T1 sequence (O00255 with tags, fused parts or gaps T541A): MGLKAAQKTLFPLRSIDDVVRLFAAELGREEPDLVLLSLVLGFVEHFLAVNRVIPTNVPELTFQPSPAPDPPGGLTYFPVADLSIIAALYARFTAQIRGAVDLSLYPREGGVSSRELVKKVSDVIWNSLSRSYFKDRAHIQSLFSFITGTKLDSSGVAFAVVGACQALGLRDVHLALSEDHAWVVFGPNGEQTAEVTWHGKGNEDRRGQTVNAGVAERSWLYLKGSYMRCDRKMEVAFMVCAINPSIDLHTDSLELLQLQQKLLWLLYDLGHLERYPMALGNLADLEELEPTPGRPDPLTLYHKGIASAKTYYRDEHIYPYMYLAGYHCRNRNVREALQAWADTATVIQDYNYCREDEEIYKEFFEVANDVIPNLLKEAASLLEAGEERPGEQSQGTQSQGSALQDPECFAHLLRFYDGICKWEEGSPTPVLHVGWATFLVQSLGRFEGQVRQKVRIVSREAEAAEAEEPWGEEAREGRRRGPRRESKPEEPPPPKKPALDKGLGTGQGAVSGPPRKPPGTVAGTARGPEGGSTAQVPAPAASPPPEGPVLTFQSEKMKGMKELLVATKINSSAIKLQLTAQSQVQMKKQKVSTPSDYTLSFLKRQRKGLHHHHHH
The test is described as follows: Menin/MLL fluorescence polarization (FP) assay. The test is classed as binding. Particulars: averaged values over all measurements; read-out: Menin FP assay (IC50 (μM)). The procedure:
1) Menin/MLL Fluorescence Polarization Assay
To a non-surface binding, black 384-well microtiter plate was added 50 nL 160× test compound in DMSO and 4 μL 2× menin in assay buffer (40 mM Tris·HCl, pH 7.5, 50 mM NaCl, 1 mM DTT and 0.001% Tween 20). After incubation of test compound and menin for 10 min at ambient temperature, 4 μL 2×FITC-MBM1 peptide (FITC-β-alanine-SARWRFPARPGT-NH2 (SEQ ID NO: 2)) in assay buffer was added, the microtiter plate centrifuged at 1000 rpm for 1 min and the assay mixtures incubated for 15 min at ambient temperature. The relative amount of menin·FITC-MBM1 complex present in an assay mixture is determined by measuring the fluorescence polarization (FP) of the FITC label with a BMG Pherastar plate reader (ex. 485 nm/em. 520 nm) at ambient temperature. The final concentrations of reagents in the binding assay are 100 nM menin, 5 nM FITC-MBM1 peptide and 0.625% DMSO in assay buffer. Dose-response titrations of test compounds are conducted using an 11 point, three-fold serial dilution scheme, starting at 31 μM.
Compound potencies were determined by first calculating % inhibition at each compound concentration according to equation 1: % inhibition=((HC−LC)−(FP^compound−LC))/(HC−LC))*100 (Eqn 1)
Where LC and HC are the FP values of the assay in the presence or absence of a saturating concentration of a compound that competes with FITC-MBM1 for binding to menin, and FP^compound is the measured FP value in the presence of the test compound. HC and LC FP values represent an average of at least 16 replicates per plate. […] 2) Proliferation Assay

The test system of the next test is MV-4-11. The test is described as follows: Proliferation assay (spheroid assay) MV-4-11. Format: cell-based, human. The conditions noted are these: Homo sapiens, MV4-11, MV-4-11; averaged values; read-out: Spheroid assay MV-4-11 (IC50 (μM)). The procedure: as §1, §2, §3, §4, §5, §6
For a further test, the system named is K562. Briefly: Proliferation assay (spheroid assay) K562, control cell line. Format: cell-based. Particulars: Homo sapiens; K562 control cell line; averaged values; read-out: Spheroid assay K562 (IC50 (μM)). The procedure: as §1, §2, §3, §4, §5, §6

Each structure is given as a SMILES string.

Take `FC(F)(F)Cc1cc2c(N3CCCC4(CCN(Cc5ccccc5)C4)C3)ncnc2s1` (racemic) [Compound 18]: the IC50 – broadly, the midpoint of a concentration-inhibition curve – was 7.7 µM in the test on MOLM14, 0.14 µM at menin, 3.9 µM with MV-4-11 and over 15 µM with K562.
Regarding `FC(F)(F)Cc1cc2c(N3CC[C@@]4(CCN(Cc5ccccc5)C4)C3)ncnc2s1` (single isomer, unassigned) [Compound 20a], the IC50 is 5 µM with MOLM14, 0.076 µM on menin, 0.96 µM in the test with MV-4-11 and over 15 µM in the test with K562.
Regarding `FC(F)(F)Cc1cc2c(N3CCC[C@]4(CCN(Cc5ccccc5)C4)C3)ncnc2s1` (single isomer, unassigned) [Compound 21a], the IC50 in the test on MOLM14 is 12.1 µM; at menin, 0.49 µM; in the test with MV-4-11 it was 6.9 µM; in the test on K562 it was over 15 µM.
In the case of `FC(F)(F)Cc1cc2c(N3CCC[C@@]4(CCN(Cc5ccccc5)C4)C3)ncnc2s1` (single isomer, unassigned) [Compound 21b], the IC50 with MOLM14 was 4.6 µM; on menin it was 0.13 µM; in the test on MV-4-11, 4.2 µM; with K562 it was over 15 µM.
Turning to `FC(F)(F)Cc1cc2c(N3CCC4(CN(Cc5ccccc5)C4)C3)ncnc2s1` [Compound 1], the IC50 was 4.6 µM in the test with MOLM14, 0.056 µM on menin, 3.7 µM with MV-4-11 and over 15 µM with K562.
As for `FC(F)(F)CCN1CC2(CCN(c3ncnc4sc(CC(F)(F)F)cc34)C2)C1` [Compound 2], the IC50 is 14.6 µM in the test with MOLM14, 0.39 µM at menin, 4.9 µM in the test with MV-4-11 and over 15 µM in the test on K562.
As for `FC(F)(F)Cc1cc2c(N3CCC4(CCN(Cc5ccccc5)C4)CC3)ncnc2s1` [Compound 3], the IC50 in the test on MOLM14 was 5.6 µM; on menin it was 0.1 µM; in the test with MV-4-11 it was 3.8 µM; in the test with K562 it was about 15 µM.
As for `FC(F)(F)Cc1cc2c(N3CCC4(CN(Cc5cn6ccccc6n5)C4)C3)ncnc2s1` [Compound 5], the half-inhibitory concentration (IC50) with MOLM14 was 30.6 µM; on menin, 0.67 µM; in the test on MV-4-11, 6.4 µM; in the test with K562, over 15 µM.
Turning to `FC(F)(F)Cc1cc2c(N3CCC4(CN(Cc5ccc6nccn6c5)C4)C3)ncnc2s1` [Compound 6], the IC50 in the test with MOLM14 was 10.1 µM; at menin, 0.24 µM; in the test on MV-4-11, 2.4 µM; in the test on K562, over 15 µM.
Taken in the same sequence, the figures for `FC(F)(F)Cc1cc2c(N3CCC4(CN(Cc5cnccn5)C4)C3)ncnc2s1` [Compound 12] were over 15 µM, 0.63 µM, over 15 µM and over 15 µM.
As for `CC(C)CN1CC2(CCN(c3ncnc4sc(CC(F)(F)F)cc34)C2)C1` [Compound 13], the IC50 in the test on MOLM14 is 4.2 µM; at menin, 0.042 µM; with MV-4-11 it was 0.73 µM; in the test on K562, over 15 µM.
In the case of `FC(F)(F)Cc1cc2c(N3CCC4(CN(Cc5ccnc(Cl)n5)C4)C3)ncnc2s1` [Compound 15], the IC50 in the test on MOLM14 is over 15 µM; on menin, 0.57 µM; in the test with MV-4-11 it was 14 µM; in the test with K562, over 15 µM.
Take `NCCCOc1cccc(CN2CC3(CCN(c4ncnc5sc(CC(F)(F)F)cc45)C3)C2)c1` [Compound 37]: the IC50 came to 3.1 µM with MOLM14, 0.17 µM on menin and 1.5 µM with MV-4-11.
Turning to `CC(C)NCCNC(=O)C(c1ccccc1)N1CC2(CCN(c3ncnc4sc(CC(F)(F)F)cc34)C2)C1` (stereo not drawn) [Compound 74], the figures for the IC50 with MOLM14, at menin and with MV-4-11 were 6.1 µM, 0.12 µM and 2 µM, respectively.
Taken in the same sequence, the figures for `O=C([C@@H]1C[C@@H](F)CN1)N1CC2(C1)CN(c1ncnc3sc(CC(F)(F)F)cc13)C2` [Compound 89] were 10.5 µM, 0.045 µM and 1.3 µM.
For `O=C([C@@H]1CC(F)(F)CN1)N1CC2(C1)CN(c1ncnc3sc(CC(F)(F)F)cc13)C2` [Compound 90] the same measures were over 15 µM, 0.11 µM and 11.1 µM.
In the case of `C[C@H]1CN[C@H](C(=O)N2CC3(C2)CN(c2ncnc4sc(CC(F)(F)F)cc24)C3)C1` [Compound 105], the IC50 with MOLM14 is 3.4 µM; with MV-4-11, 0.67 µM; with K562 it was over 15 µM.
For the compound `Cn1cc2c(n1)CCCC2N1CC2(CCN(c3ncnc4sc(CC(F)(F)F)cc34)C2)C1` (stereo not drawn) [Compound 133], the IC50 in the test on MOLM14 is over 15 µM; at menin it was 0.12 µM; with MV-4-11, 2.1 µM.
With `CC(c1cnn(C)c1)N1CC2(CCN(c3ncnc4sc(CC(F)(F)F)cc34)C2)C1` (stereo not drawn) [Compound 197], the IC50 is over 15 µM in the test with MOLM14, 0.3 µM at menin and 7.3 µM in the test on MV-4-11.
In the case of `C[C@H](c1cnn(C)c1)N1CC2(CCN(c3ncnc4sc(CC(F)(F)F)cc34)C2)C1` [Compound 198], the results for the IC50 in the test on MOLM14, on menin and in the test on MV-4-11 were 12.4 µM, 0.14 µM and 5.1 µM, respectively.
For `C[C@@H](c1cnn(C)c1)N1CC2(CCN(c3ncnc4sc(CC(F)(F)F)cc34)C2)C1` [Compound 199], the values for the IC50 with MOLM14, at menin and with MV-4-11 were over 15 µM, 0.41 µM and 12.9 µM, respectively.
Take `CC(C)[C@@H](C1CNC1)N1CC2(CCN(c3ncnc4sc(CC(F)(F)F)cc34)C2)C1` [Compound 200]: the IC50 stood at 10.3 µM in the test on MOLM14, 0.11 µM on menin and 3.4 µM in the test with MV-4-11.
